Data: PubChem BioAssay AID256 (DTP/NCI, 2004)
Toxic doses and inconclusive results are not listed. The calls were made as follows: active = survival T/C of 150% or more; inactive = T/C below 125% in these data.

System: CD2F1 mice, L1210 leukemia ip, survival T/C
Assay: NCI In Vivo Anticancer Drug Screen. Data for tumor model L1210 Leukemia (intraperitoneal) in CD2F1 (CDF1) mice
Conditions: higher = longer survival
Outline: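 Read-out first: treated-group measurement over vehicle-control measurement, expressed as a ratio. Animals bore a transplanted tumor line and were dosed with compound or vehicle.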

[1] = endpoint: mean survival time, dose: 100.0 mg/kg/injection, schedule: Q01DX009 (ip), vehicle: saline with Tween-80
[2] = endpoint: mean survival time, dose: 200.0 mg/kg/injection, schedule: Q01DX009 (ip), vehicle: saline with Tween-80
[3] = endpoint: mean survival time, dose: 400.0 mg/kg/injection, schedule: Q01DX009 (ip), vehicle: saline with Tween-80
[4] = endpoint: mean survival time, dose: 50.0 mg/kg/injection, schedule: Q01DX009 (ip), vehicle: saline with Tween-80
[5] = endpoint: mean survival time, dose: 100.0 mg/kg/injection, schedule: Q04DX003 (ip), vehicle: saline with Tween-80
[6] = endpoint: mean survival time, dose: 200.0 mg/kg/injection, schedule: Q04DX003 (ip), vehicle: saline with Tween-80
[7] = endpoint: mean survival time, dose: 100.0 mg/kg/injection, schedule: Q04DX003 (ip), vehicle: saline
[8] = endpoint: mean survival time, dose: 200.0 mg/kg/injection, schedule: Q04DX003 (ip), vehicle: saline
[9] = endpoint: mean survival time, dose: 400.0 mg/kg/injection, schedule: Q04DX003 (ip), vehicle: saline
[10] = endpoint: mean survival time, dose: 400.0 mg/kg/injection, schedule: Q04DX003 (ip), vehicle: saline with Tween-80
[11] = endpoint: mean survival time, dose: 100.0 mg/kg/injection, schedule: Q04DX002 (ip), vehicle: saline with Tween-80
[12] = endpoint: mean survival time, dose: 200.0 mg/kg/injection, schedule: Q04DX002 (ip), vehicle: saline with Tween-80
[13] = endpoint: mean survival time, dose: 400.0 mg/kg/injection, schedule: Q04DX002 (ip), vehicle: saline with Tween-80

Measured: T/C

CN(C)c1ccc(/C=N/NC(=O)c2ccccc2N)cc1
inactive: [1] 92 % of control | [2] 91 % of control | [3] 91 % of control

CC(=O)OCC1OC(n2cnc3c(I)nc(I)nc32)C(OC(C)=O)C1OC(C)=O (stereo unspecified)
inactive: endpoint: median survival time, dose: 25.0 mg/kg/injection, schedule: Q01DX005 (ip), vehicle: saline with Tween-80 105 % of control | endpoint: median survival time, dose: 50.0 mg/kg/injection, schedule: Q01DX005 (ip), vehicle: saline with Tween-80 95 % of control | endpoint: median survival time, dose: 100.0 mg/kg/injection, schedule: Q01DX005 (ip), vehicle: saline with Tween-80 96 % of control | endpoint: median survival time, dose: 200.0 mg/kg/injection, schedule: Q01DX005 (ip), vehicle: saline with Tween-80 95 % of control

Nc1ccc2c(Cl)cc(Cl)cc2c1
inactive: [4] 102 % of control | [1] 103 % of control | [5] 98 % of control | [2] 96 % of control | [6] 91 % of control

CCN(CC)N1C(=O)[N+](CC)(CC)N=C1[O-]
inactive: [7] 102 % of control | [8] 95 % of control | [9] 101 % of control

O=C(CC(O)(C(F)(F)F)C(F)(F)F)c1ccco1
inactive: [4] 116 % of control | [1] 110 % of control | [5] 105 % of control | [6] 100 % of control

COC(=O)CCC(=O)N(C)CCc1c[nH]c2ccccc12
inactive: [1] 100 % of control | [5] 93 % of control | [2] 94 % of control | [6] 93 % of control | [3] 100 % of control | [10] 98 % of control

Cc1ccnc([N+](=O)[O-])c1
inactive: [5] 102 % of control | [6] 96 % of control | [10] 97 % of control

COc1ccccc1C1C=CCCCC1 (stereo unspecified)
inactive: [7] 95 % of control | [8] 93 % of control | [9] 96 % of control

CCNC(=O)C(=O)NCC
inactive: [11] 103 % of control | [12] 100 % of control | [13] 103 % of control

O=C1CCc2ccccc21 (tested in a mixture with another compound)
inactive: endpoint: mean survival time, dose: 50.0 mg/kg/injection, schedule: Q04DX002 (ip), vehicle: saline with Tween-80 96 % of control | [11] 101 % of control | [12] 96 % of control

CC(C)N(C(C)C)S(=O)(=O)c1ccccc1C(O)(c1ccccc1)c1ccccc1
inactive: [1] 92 % of control | [5] 94 % of control | [6] 96 % of control | [10] 89 % of control

CC1=NNC(=O)C1CCO (stereo unspecified)
inactive: endpoint: median survival time, dose: 25.0 mg/kg/injection, schedule: Q01DX009 (ip), vehicle: Klucel (hydroxypropylcellulose) (HPC) 103 % of control | endpoint: median survival time, dose: 50.0 mg/kg/injection, schedule: Q01DX009 (ip), vehicle: Klucel (hydroxypropylcellulose) (HPC) 100 % of control | endpoint: median survival time, dose: 100.0 mg/kg/injection, schedule: Q01DX009 (ip), vehicle: Klucel (hydroxypropylcellulose) (HPC) 98 % of control | endpoint: median survival time, dose: 200.0 mg/kg/injection, schedule: Q01DX009 (ip), vehicle: Klucel (hydroxypropylcellulose) (HPC) 102 % of control | endpoint: median survival time, dose: 400.0 mg/kg/injection, schedule: Q01DX009 (ip), vehicle: Klucel (hydroxypropylcellulose) (HPC) 103 % of control | endpoint: median survival time, dose: 800.0 mg/kg/injection, schedule: Q01DX009 (ip), vehicle: Klucel (hydroxypropylcellulose) (HPC) 104 % of control

O=C1NC(=O)/C(=C/c2ccccc2)N1
inactive: endpoint: mean survival time, dose: 75.0 mg/kg/injection, schedule: Q04DX003 (ip), vehicle: saline sonified 100 % of control | endpoint: mean survival time, dose: 150.0 mg/kg/injection, schedule: Q04DX003 (ip), vehicle: saline sonified 105 % of control | endpoint: mean survival time, dose: 300.0 mg/kg/injection, schedule: Q04DX003 (ip), vehicle: saline sonified 105 % of control

CC(=O)ON1C(=O)c2cccc3cccc(c23)C1=O
inactive: [4] 96 % of control | [1] 102 % of control

COC1OC2COC(c3ccccc3)OC2C2NC(N)(N[N+](=O)[O-])C12O (stereo unspecified)
inactive: endpoint: mean survival time, dose: 100.0 mg/kg/injection, schedule: Q01DX001 (ip), vehicle: saline with Tween-80 91 % of control | endpoint: mean survival time, dose: 200.0 mg/kg/injection, schedule: Q01DX001 (ip), vehicle: saline with Tween-80 88 % of control | endpoint: mean survival time, dose: 400.0 mg/kg/injection, schedule: Q01DX001 (ip), vehicle: saline with Tween-80 94 % of control

Cc1nc2c(N)nn(C)c2nc1C
inactive: [5] 95 % of control | [6] 101 % of control | [10] 101 % of control

CC(=O)c1ccc(N=Nc2c(N)nc(N)nc2N)cc1
inactive: [1] 92 % of control | [5] 89 % of control | [2] 97 % of control | [6] 87 % of control | [3] 98 % of control | [10] 89 % of control

CCCCCCCCCCCCCCCCC(Br)C(=O)c1ccccc1 (stereo unspecified)
inactive: [11] 102 % of control | [12] 95 % of control | [13] 111 % of control

CCOP(=O)(OCC)OC(C)C#N (stereo unspecified)
inactive: endpoint: mean survival time, dose: 12.5 mg/kg/injection, schedule: Q01DX009 (ip), vehicle: saline 97 % of control | endpoint: mean survival time, dose: 25.0 mg/kg/injection, schedule: Q01DX009 (ip), vehicle: saline 97 % of control

CN(C)N=Nc1c(F)cc(F)c(F)c1F
inactive: endpoint: mean survival time, dose: 25.0 mg/kg/injection, schedule: Q01DX009 (ip), vehicle: saline with Tween-80 101 % of control | [4] 104 % of control | [1] 104 % of control

CC(=O)c1ccccc1OC(=O)c1ccccc1
inactive: [1] 100 % of control | [5] 107 % of control | [2] 91 % of control | [6] 101 % of control | [3] 93 % of control | [10] 104 % of control

COc1ccc(-n2c(=S)[nH]c3ccc(C)cc3c2=O)cc1
inactive: [1] 97 % of control | [2] 100 % of control | [3] 91 % of control
